Results published in PMC5224920, “Assessing the mechanism and therapeutic potential of modulators of the human Mediator complex-associated protein kinases” (eLife, 2016).

System: 12 single or co-culture in vitro tissue models of primary cells
Assay: Culture/co-culture cell model panel, extracellular biomarkers (DiscoveRx); on CCL2/MCP-1: reference of the scale not given here; on CXCL8/IL-8: reference of the scale not given here; on CXCL9/MIG: reference of the scale not given here; on M-CSF: reference of the scale not given here; on PBMC Cytotoxicity: reference of the scale not given here; on SRB: reference of the scale not given here; on sTNF-alpha: reference of the scale not given here
Format: cell-based, human
Conditions: for sTNF-alpha / B cell Proliferation / PBMC Cytotoxicity / Secreted IgG / sIL-2 / sIL-6 / sIL-17A / sIL-17F: BT; for CCL2/MCP-1 / CD54/ICAM-1 / CD106/VCAM-1 / CXCL8/IL-8 / CXCL9/MIG / CXCL10/IP-10 / CXCL11/I-TAC / Collagen I / Collagen III / EGFR / M-CSF / MMP-1 / PAI-I / Proliferation_72hr / SRB / TIMP-1 / TIMP-2: HDF3CGF stimulated fibroblasts

Cc1n[nH]c2ncc(C(=O)N3CCC[C@H]3c3ccc(Cl)cc3)cc12 [CMPD4]
sTNF-alpha (1.00E4 nM): 0.086
B cell Proliferation (1.11E3 nM): 0.005
PBMC Cytotoxicity (1.11E3 nM): 0.008
Secreted IgG (1.11E3 nM): -0.271
sIL-2 (1.11E3 nM): -0.010
sIL-6 (1.11E3 nM): 0.011
sIL-17A (1.11E3 nM): 0.280
sIL-17F (1.11E3 nM): -0.402
sTNF-alpha (1.11E3 nM): 0.063
B cell Proliferation (1.23E2 nM): 0.027
PBMC Cytotoxicity (1.23E2 nM): 0.018
Secreted IgG (1.23E2 nM): -0.256
sIL-2 (1.23E2 nM): 0.014
sIL-6 (1.23E2 nM): 0.030
sIL-17A (1.23E2 nM): 0.185
sIL-17F (1.23E2 nM): -0.282
sTNF-alpha (1.23E2 nM): 0.057
B cell Proliferation (1.37E1 nM): -0.012
PBMC Cytotoxicity (1.37E1 nM): 0.011
Secreted IgG (1.37E1 nM): -0.141
sIL-2 (1.37E1 nM): 0.014
sIL-6 (1.37E1 nM): 0.027
sIL-17A (1.37E1 nM): 0.187
sIL-17F (1.37E1 nM): -0.0019
sTNF-alpha (1.37E1 nM): 0.046
B cell Proliferation (3.33E3 nM): -0.018
PBMC Cytotoxicity (3.33E3 nM): -0.00188
Secreted IgG (3.33E3 nM): -0.298
sIL-2 (3.33E3 nM): -0.066
sIL-6 (3.33E3 nM): 0.010
sIL-17A (3.33E3 nM): 0.312
sIL-17F (3.33E3 nM): -0.374
sTNF-alpha (3.33E3 nM): 0.093
B cell Proliferation (3.70E2 nM): -0.072
PBMC Cytotoxicity (3.70E2 nM): -0.003
Secreted IgG (3.70E2 nM): -0.278
sIL-2 (3.70E2 nM): -0.005
sIL-6 (3.70E2 nM): -0.000869
sIL-17A (3.70E2 nM): 0.240
sIL-17F (3.70E2 nM): -0.290
sTNF-alpha (3.70E2 nM): 0.057
B cell Proliferation (4.12E1 nM): -0.040
PBMC Cytotoxicity (4.12E1 nM): -0.011
Secreted IgG (4.12E1 nM): -0.161
sIL-2 (4.12E1 nM): 0.032
sIL-6 (4.12E1 nM): 0.045
sIL-17A (4.12E1 nM): 0.263
sIL-17F (4.12E1 nM): -0.163
sTNF-alpha (4.12E1 nM): 0.025
B cell Proliferation (4.57E0 nM): 0.00188
PBMC Cytotoxicity (4.57E0 nM): 0.009
Secreted IgG (4.57E0 nM): 0.00642
sIL-2 (4.57E0 nM): 0.059
sIL-6 (4.57E0 nM): -0.013
sIL-17A (4.57E0 nM): 0.029
sIL-17F (4.57E0 nM): -0.027
sTNF-alpha (4.57E0 nM): 0.044
CCL2/MCP-1 (1.00E4 nM): -0.062
CD54/ICAM-1 (1.00E4 nM): -0.066
CD106/VCAM-1 (1.00E4 nM): 0.015
CXCL8/IL-8 (1.00E4 nM): -0.071
CXCL9/MIG (1.00E4 nM): -0.035
CXCL10/IP-10 (1.00E4 nM): 0.016
CXCL11/I-TAC (1.00E4 nM): -0.012
Collagen I (1.00E4 nM): 0.017
Collagen III (1.00E4 nM): 0.028
EGFR (1.00E4 nM): -0.096
M-CSF (1.00E4 nM): -0.031
MMP-1 (1.00E4 nM): -0.059
PAI-I (1.00E4 nM): -0.088
Proliferation_72hr (1.00E4 nM): -0.248
SRB (1.00E4 nM): -0.00367
TIMP-1 (1.00E4 nM): -0.111
TIMP-2 (1.00E4 nM): -0.065
CCL2/MCP-1 (1.11E3 nM): -0.100
CD54/ICAM-1 (1.11E3 nM): -0.070
CD106/VCAM-1 (1.11E3 nM): 0.050
CXCL8/IL-8 (1.11E3 nM): -0.111
CXCL9/MIG (1.11E3 nM): -0.045
CXCL10/IP-10 (1.11E3 nM): 0.029
CXCL11/I-TAC (1.11E3 nM): -0.023
Collagen I (1.11E3 nM): -0.003
Collagen III (1.11E3 nM): 0.052
EGFR (1.11E3 nM): -0.103
M-CSF (1.11E3 nM): -0.041
MMP-1 (1.11E3 nM): -0.071
PAI-I (1.11E3 nM): -0.065
Proliferation_72hr (1.11E3 nM): -0.244
SRB (1.11E3 nM): -0.002
TIMP-1 (1.11E3 nM): -0.078
TIMP-2 (1.11E3 nM): 0.064
CCL2/MCP-1 (1.23E2 nM): -0.076
CD54/ICAM-1 (1.23E2 nM): -0.078
CD106/VCAM-1 (1.23E2 nM): 0.069
CXCL8/IL-8 (1.23E2 nM): -0.081
CXCL9/MIG (1.23E2 nM): -0.042
CXCL10/IP-10 (1.23E2 nM): 0.037
CXCL11/I-TAC (1.23E2 nM): -0.032
Collagen I (1.23E2 nM): 0.025
Collagen III (1.23E2 nM): 0.068
EGFR (1.23E2 nM): -0.097
M-CSF (1.23E2 nM): -0.068
MMP-1 (1.23E2 nM): -0.042
PAI-I (1.23E2 nM): -0.031
Proliferation_72hr (1.23E2 nM): -0.191
SRB (1.23E2 nM): 0.024
TIMP-1 (1.23E2 nM): -0.068
TIMP-2 (1.23E2 nM): 0.076
CCL2/MCP-1 (1.37E1 nM): -0.043
CD54/ICAM-1 (1.37E1 nM): -0.058
CD106/VCAM-1 (1.37E1 nM): 0.069
CXCL8/IL-8 (1.37E1 nM): -0.024
CXCL9/MIG (1.37E1 nM): -0.012
CXCL10/IP-10 (1.37E1 nM): 0.038
CXCL11/I-TAC (1.37E1 nM): -0.002
Collagen I (1.37E1 nM): 0.048
Collagen III (1.37E1 nM): 0.094
EGFR (1.37E1 nM): -0.067
M-CSF (1.37E1 nM): -0.052
MMP-1 (1.37E1 nM): 0.006
PAI-I (1.37E1 nM): 0.00043
Proliferation_72hr (1.37E1 nM): -0.130
SRB (1.37E1 nM): 0.016
TIMP-1 (1.37E1 nM): -0.033
TIMP-2 (1.37E1 nM): 0.049
CCL2/MCP-1 (3.33E3 nM): -0.117
CD54/ICAM-1 (3.33E3 nM): -0.064
CD106/VCAM-1 (3.33E3 nM): 0.050
CXCL8/IL-8 (3.33E3 nM): -0.103
CXCL9/MIG (3.33E3 nM): -0.054
CXCL10/IP-10 (3.33E3 nM): 0.032
CXCL11/I-TAC (3.33E3 nM): -0.022
Collagen I (3.33E3 nM): 0.006
Collagen III (3.33E3 nM): 0.051
EGFR (3.33E3 nM): -0.111
M-CSF (3.33E3 nM): -0.031
MMP-1 (3.33E3 nM): -0.057
PAI-I (3.33E3 nM): -0.062
Proliferation_72hr (3.33E3 nM): -0.194
SRB (3.33E3 nM): -0.008
TIMP-1 (3.33E3 nM): -0.075
TIMP-2 (3.33E3 nM): -0.041
CCL2/MCP-1 (3.70E2 nM): -0.066
CD54/ICAM-1 (3.70E2 nM): -0.075
CD106/VCAM-1 (3.70E2 nM): 0.067
CXCL8/IL-8 (3.70E2 nM): -0.100
CXCL9/MIG (3.70E2 nM): -0.034
CXCL10/IP-10 (3.70E2 nM): 0.040
CXCL11/I-TAC (3.70E2 nM): -0.017
Collagen I (3.70E2 nM): 0.018
Collagen III (3.70E2 nM): 0.066
EGFR (3.70E2 nM): -0.123
M-CSF (3.70E2 nM): -0.056
MMP-1 (3.70E2 nM): -0.053
PAI-I (3.70E2 nM): -0.013
Proliferation_72hr (3.70E2 nM): -0.187
SRB (3.70E2 nM): 0.021
TIMP-1 (3.70E2 nM): -0.069
TIMP-2 (3.70E2 nM): 0.123
CCL2/MCP-1 (4.12E1 nM): -0.141
CD54/ICAM-1 (4.12E1 nM): -0.066
CD106/VCAM-1 (4.12E1 nM): 0.066
CXCL8/IL-8 (4.12E1 nM): -0.049
